Experimental data as given in US11793880B2, “Conjugates of quaternized tubulysin compounds” (Seagen Inc., priority 2015, dated 2023).

Key:
Assay type in all cases: cell-based
[1] = system: HepG2, L540cy, Ramos, U266, HL60, HL60/RV cell lines; experiment: In vitro assays - TubOEt analogues, statements across the cell line panel; settings: Table 3 cell lines, 96 hour exposure
Protocol: (§1) In vitro assays. Cells cultured in log-phase growth were seeded for 24 h in 96-well plates containing 150 μL RPMI 1640 supplemented with 20% FBS. Serial dilutions of antibody-drug conjugates in cell culture media were prepared at 4× working concentrations; 50 μL of each dilution was added to the 96-well plates. Following addition of ADC, cells were incubated with test articles for 4 d at 37° C. After 96 h, growth inhibition was assessed by CellTiter-Glo® (Promega, Madison, WI) and luminescence was measured on a plate reader. The IC50 value, determined in triplicate, is defined here as the concentration that results in a 50% reduction in cell growth relative to untreated controls.
(§2) A series of analogues of the ethyl ether tubulysin compound TubOEt (41) were synthesized on solid phase lanterns that maintain the ethyl ether substitution, while either varying the residue at the Ile position (203-215) or the Mep position (216-221). Following cleavage from the solid phase, the analogues were obtained in >85% purity and tested without further purification. The compounds were tested in vitro for potency relative to a sample of TubOEt synthesized in parallel on a lantern (41-lantern), following a 96 hour exposure, with IC5O values expressed in nM (Table 3). While in many cases an attenuation in activity was observed relative to 41-lantern, some well-tolerated substitutions were found. […] While this stereochemical preference is not observed when Ile is replaced with O-methyl threonine (207) or O-methyl allothreonine (206), bulkier substituents led to a greater differentiation. […] Replacement of the Mep residue was generally less-well tolerated.

Ramos, NHL = experiment: In vitro assays - TubOEt analogues, CellTiter-Glo growth inhibition; settings: Homo sapiens, Table 3, lantern-made analogues >85% purity, 96 hour exposure
Protocol: as §1, §2

U266 MM = experiment: as above; settings: Homo sapiens, U-266; Table 3; lantern-made analogues >85% purity, 96 hour exposure
Protocol: as §1, §2

HepG2, HCC = experiment: as above; settings: Homo sapiens, Table 3, lantern-made analogues >85% purity, 96 hour exposure
Protocol: as §1, §2

L540cy, HL = experiment: In vitro assays - tubulysin free drugs, CellTiter-Glo growth inhibition; settings: L540cy, 96 h, Table 3; lantern-made analogues >85% purity, 96 hour exposure
Protocol: as §1
(§3) In vitro assays—tubulysin free drugs. Cells were treated for 96 hours with tubulysin ether analogs (40-42) or tubulysin M (7), then assessed for viability as described in the methods.
(§4) The tubulysin ester analogs (133-137) and unsaturated ether analogs (176-179) were tested in vitro for potency relative to tubulysin M (7), following a 96 hour exposure. As shown by IC50 values (nM) of Table 2, Tubulysin esters 133-136 performed comparably to tubulysin M, with similar potencies across of the cell lines.
as §2

HL60, AML = experiment: as above; settings: Homo sapiens, HL-60, 96 h, Table 3; lantern-made analogues >85% purity, 96 hour exposure
Protocol: as §1, §3, §4, §2

HL60/RV, MDR + AML = experiment: as above; settings: Homo sapiens, HL-60, 96 h, Table 3; lantern-made analogues >85% purity, 96 hour exposure
Protocol: as §1, §3, §4, §2

| Compound | potency / cytotoxicity of TubOEt analogues, in words [1] | IC50 (Ramos, NHL) [nM] | IC50 (U266 MM) [nM] | IC50 (HepG2, HCC) [nM] | IC50 (L540cy, HL) [nM] | IC50 (HL60, AML) [nM] | IC50 (HL60/RV, MDR + AML) [nM] |
| --- | --- | --- | --- | --- | --- | --- | --- |
| CCO[C@H](C[C@H](C(C)C)N(C)C(=O)[C@@H](NC(=O)C1CCC(F)(F)CN1C)[C@@H](C)CC)c1nc(C(=O)N[C@@H](Cc2ccccc2)C[C@H](C)C(=O)O)cs1 (stereo partly drawn) [Compound 216, (2S,4R)-4-(2-((1R,3R)-3-((2S,3S)-2-(5,5-difluoro-1-methylpiperidine-2-carboxamido)-N,3-dimethylpentanamido)-1-ethoxy-4-methylpentyl)thiazole-4-carboxamido)-2-methyl-5-phenylpentanoic acid] | decrease in the observed cytotoxicity | 10 | 9 | 58 | 12 | 61 | > 1000 |
| CCO[C@H](C[C@H](C(C)C)N(C)C(=O)[C@@H](NC(=O)C12CC(CCN1C)C2)[C@@H](C)CC)c1nc(C(=O)N[C@@H](Cc2ccccc2)C[C@H](C)C(=O)O)cs1 [Compound 217, (2S,4R)-4-(2-((1R,3R)-3-((2S,3S)—N,3-dimethyl-2-(2-methyl-2-azabicyclo[3.1.1]heptane-1-carboxamido)pentanamido)-1-ethoxy-4-methylpentyl)thiazole-4-carboxamido)-2-methyl-5-phenylpentanoic acid] | most potent compounds obtained in this series | 0.4 | 0.4 | 2 | 1 | 4 | 244 |
| CCO[C@H](C[C@H](C(C)C)N(C)C(=O)[C@@H](NC(=O)[C@H]1[C@H]2CC[C@H](CC2)N1C)[C@@H](C)CC)c1nc(C(=O)N[C@@H](Cc2ccccc2)C[C@H](C)C(=O)O)cs1 [Compound 218] | decrease in the observed cytotoxicity | 6 | 7 | 9 | 5 | 24 | > 1000 |
| CCO[C@H](C[C@H](C(C)C)N(C)C(=O)[C@@H](NC(=O)[C@H]1[C@@H]2CC[C@@H](C2)N1C)[C@@H](C)CC)c1nc(C(=O)N[C@@H](Cc2ccccc2)C[C@H](C)C(=O)O)cs1 [Compound 219, (2S,4R)-4-(2-((1R,3R)-3-((2S,3S)—N,3-dimethyl-2-((1S,3R,4R)-2-methyl-2-azabicyclo[2.2.1]heptane-3-carboxamido)pentanamido)-1-ethoxy-4-methylpentyl)-thiazole-4-carboxamido)-2-methyl-5-phenylpentanoic acid] | decrease in the observed cytotoxicity | 8 | 8 | 19 | 6 | 25 | > 1000 |
| CCO[C@H](C[C@H](C(C)C)N(C)C(=O)[C@@H](NC(=O)[C@@]1(C)CCCN1C)[C@@H](C)CC)c1nc(C(=O)N[C@@H](Cc2ccccc2)C[C@H](C)C(=O)O)cs1 [Compound 221, (2S,4R)-4-(2-((1R,3R)-3-((2S,3S)-2-((R)-1,2-dimethylpyrrolidine-2-carboxamido)-N,3-dimethylpentanamido)-1-ethoxy-4-methylpentyl)thiazole-4-carboxamido)-2-methyl-5-phenylpentanoic acid] | most potent compounds obtained in this series | 1 | 2 | 4 | 1 | 12 | 522 |
